Experimental data from patent US12411143B2, “CD146 and uses thereof as a biomarker and as a therapeutic target in the diagnosis and treatment of fibrosis” (ASSISTANCE PUBLIQUE HÔPITAUX DE MARSEILLE, priority 2018, dated 2025).

Columns and labels:
ECFC [1] = experiment: Soluble CD146 secretion in ECFC (ELISA); format: cell-based, human; conditions: for secretion of soluble CD146 in response to stimuli: 24 h, 20 ng/ml TNF, 20 ng/ml VEGF, 5 ng/ml TGFb, 50 ng/ml netrin, 50 ng/ml Wnt5a; for sCD146 secretion with proteinase inhibitors: IF 50 μM, TIMPs 1 μg/ml
Description: A: Secretion of soluble CD146 (CD146s) was determined in ECFC in response to 24 h of treatment with 20 ng/ml TNF, 20 ng/ml VEGF, 5 ng/ml TGFb, 50 ng/ml netrin, 50 ng/ml Wnt5a and 50 ng/ml Wnt3a.
B: The effect of the pan-inhibitor GM6001 was tested on CD146s secretion in ECFC cells by ELISA. Experiments were performed in control conditions and after treatment with 20 ng/ml TNF for 24 h. […] A dose-dependence of GM6001 effect was performed between 1 and 50 μM. Results are the mean values+/−SEM of 5 experiments.
C: The effect of furin convertase inhibitor (IF) was tested at 50 μMon CD146s secretion in control condition and after treatment with TNF 20 ng/ml for 24 h. Results are the mean values+/−SEM of 3 experiments.
D: Effect of TIMP-1, -2 and -3 (1 μg/ml) was tested on CD146s secretion in control condition and after treatment with 20 ng/ml TNF. Results are the mean values+/−SEM of 3 experiments. *: P<0.05, **: P<0.01, ***: P<0.001, experimental vs Control
A: ECFC were transfected with siRNA targeting the short (shCD146) or the long (IgCD146) isoforms of CD146 and with a control siRNA (C). Soluble CD146 (sCD146) secretion was determined. Results are the mean values+/−SEM of 4 different experiments.
B: ECFC were transfected with siRNA targeting MT1-MMP, MMP2, ADAM10 or Tace and with a control siRNA (C). Soluble CD146 (sCD146) secretion was determined. In one condition, cells were treated with GM6001 10 μM. Results are the mean values+/−SEM of 5 different experiments.
A: ECFC were transfected with siRNA targeting the short (shCD146) or the long (IgCD146) isoforms of CD146 and with a control siRNA (C) and soluble CD146 (sCD146) secretion was determined in basal condition and in cells treated for 24 h with TNF 20 ng/ml. Results are the mean values +/−SEM of 5 different experiments.
B: ECFC treated for 24 h with 20 ng/ml TNF were transfected with siRNA targeting Tace, ADAM10, MT1-MMP and with a control siRNA (C) and soluble CD146 (sCD146) secretion was determined. Results are the mean values +/−SEM of 3 different experiments.
Endothelial Colony Forming Cells (ECFC) were cultured in endothelial EGM-2 MV medium as previously described (Delorme B et al., 2005).
SiRNA designed to silence the different isoforms of sCD146 were generated. A control siRNA was also used in each experiment. siRNAs were introduced in endothelial cells using the Silence magmagnetofection kit as described by the manufacturer (OZ Biosciences).
Shed sCD146 was assayed using the commercial ELISA assay (CY-QUANT sCD146, Biocytex, Marseille). Plates were coated with specific mouse monoclonal anti-human CD146 F(ab′)2 fragments. 10 μL of sera was added to each well and incubated for 30 minutes at room temperature. After incubation, the plates were washed five times, followed by incubation with a specific HRP-coupled monoclonal antibody (7A4-HRP, 1 mg/ml, Biocytex, Marseille, France) at a 1:1 000 dilution in a specific diluent for 30 minutes at room temperature and then washed five times. 200 μL of tetramethylbenzidine (TMB) substrate was incubated for approximately 20 minutes at room temperature. The colorimetric reaction was then stopped by the addition of 100 μL of an acid solution. The intensity of the signal was directly related to the concentration of sCD146 initially contained in the sample. For detecting the two spliced isoforms of sCD146 (I5-13-sCD146 and I10-sCD146), the same immunoassay was used (Biocytex). The protocol was modified only for the second antibody (detection antibody) that was replaced by the anti-I5-13-sCD146 or anti-I10-sCD146 antibodies coupled to HRP.

ECFC [2] = experiment: mRNA expression of sCD146 isoforms in ECFC (qPCR); format: cell-based, human; conditions: ECFC; 24 h treatment (WNT5a 15 min, WNT3a 1 h)
Description: C: The mRNA expression of I10-sCD146 and I5-13-sCD146 isoforms was analyzed by qPCR in ECFC after treatment of the cells for 24 h with the recombinant shed soluble CD146 50 ng/ml, VEGF 20 ng/ml, TNF 20 ng/ml, TGF beta 5 ng/ml, and netrin 50 ng/ml. Cells were also treated for 15 min with WNT5a 200 ng/ml and 1 h with WNT3a 50 ng/ml. Results are the mean values +/−SEM of 3 experiments. *: P<0.05, experimental vs Control.
Total cellular RNA was isolated from cells, reverse transcribed into cDNA and the resulting cDNA was subjected to qPCR.

[3] = control condition and TNF 20 ng/ml 24 h

## CNC(=O)[C@H](Cc1c[nH]c2ccccc12)NC(=O)[C@@H](CC(=O)NO)CC(C)C [GM6001]
ECFC [1]; control condition and TNF 20 ng/ml 24 h, GM6001 1-50 μM
  GM6001-dependent part of total sCD146 secretion: around 75%

## TGFb: stimulus of endothelial cells, 5 ng/ml [reference compound]
ECFC [1]
  secretion of soluble CD146 in response to stimuli: increased
ECFC [2]
  I5-13-sCD146 mRNA level: not modified

## TIMP-1: TIMP used to inhibit sCD146 secretion
ECFC [1]; [3]
  sCD146 secretion with proteinase inhibitors: able to reduce sCD146 secretion in both conditions

## shCD146 siRNA: siRNA targeting the short isoform of CD146; sens 5′CAGGAGAUGGAGAGAAAUACAUCGA (antisense UCGAUGUAUUUCUCUCCAUCUCCUG; chemistry not given here)
ECFC [1]; 24 h TNF 20 ng/ml
  reduction of sCD146 secretion by siRNA: ~25%
ECFC [1]; control condition
  effect of siRNA on sCD146 secretion: no effect

B1: TIMP-3: TIMP used to inhibit sCD146 secretion (protein, UniProt P35625 24-211, looked up)
Metalloproteinase inhibitor 3: CTCSPSHPQDAFCNSDIVIRAKVVGKKLVKEGPFGTLVYTIKQMKMYRGFTKMPHVQYIHTEASESLCGLKLEVNKYQYLLTGRVYDGKMYTGLCNFVERWDQLTLSQRKGLNYRYHLGCNCKIKSCYYLPCFVTSKNECLWTDMLSNFGYPGYQSKHYACIRQKGGYCSWYRGWAPPDKSIINATDP
ECFC [1]; [3]
  sCD146 secretion with proteinase inhibitors: able to reduce sCD146 secretion only when the cells were treated with TNF

B2: Wnt3a: stimulus of endothelial cells (protein, UniProt P56704 19-352, looked up)
Protein Wnt-3a: SYPIWWSLAVGPQYSSLGSQPILCASIPGLVPKQLRFCRNYVEIMPSVAEGIKIGIQECQHQFRGRRWNCTTVHDSLAIFGPVLDKATRESAFVHAIASAGVAFAVTRSCAEGTAAICGCSSRHQGSPGKGWKWGGCSEDIEFGGMVSREFADARENRPDARSAMNRHNNEAGRQAIASHMHLKCKCHGLSGSCEVKTCWWSQPDFRAIGDFLKDKYDSASEMVVEKHRESRGWVETLRPRYTYFKVPTERDLVYYEASPNFCEPNPETGSFGTRDRTCNVSSHGIDGCDLLCCGRGHNARAERRREKCRCVFHWCCYVSCQECTRVYDVHTCK
ECFC [2]
  I5-13-sCD146 mRNA level: not modified
  I10-sCD146 mRNA level: down-regulated

B3: Wnt5a: stimulus of endothelial cells (protein, UniProt P41221 62-380, looked up)
Protein Wnt-5a: IIGAQPLCSQLAGLSQGQKKLCHLYQDHMQYIGEGAKTGIKECQYQFRHRRWNCSTVDNTSVFGRVMQIGSRETAFTYAVSAAGVVNAMSRACREGELSTCGCSRAARPKDLPRDWLWGGCGDNIDYGYRFAKEFVDARERERIHAKGSYESARILMNLHNNEAGRRTVYNLADVACKCHGVSGSCSLKTCWLQLADFRKVGDALKEKYDSAAAMRLNSRGKLVQVNSRFNSPTTQDLVYIDPSPDYCVRNESTGSLGTQGRLCNKTSEGMDGCELMCCGRGYDQFKTVQTERCHCKFHWCCYVKCKKCTEIVDQFVCK
ECFC [1]
  secretion of soluble CD146 in response to stimuli: increased
ECFC [2]
  I5-13-sCD146 mRNA level: up-regulated
